Values after ≈ are worked out from the molar mass of the structure shown. Read-outs that look alike come from different tables or passages of the source.
Columns and labels:
S. aureus = assay: Growth inhibition curves / MICs in S. aureus cultures (strain not named or summary over strains); format: cell-based, Staphylococcus aureus; settings: for MIC: Staphylococcus aureus
Protocol: (§1) Antimicrobial susceptibility testing. Minimal inhibitory concentrations (MIC) of all nucleoside analogues and TOUCANs against each bacteria strain were determined using broth microdilution method. A single colony obtained from overnight culture on tryptone soy agar with 5% defibrinated sheep blood was inoculated in cation-adjusted Mueller Hinton Broth and adjusted to 10^6 CFU/mL. TOUCANs were prepared in PBS+/+ (treatment) and serial dilutions were made in 96-well polystyrene round bottom microwell plates with 50 μL final volume for each concentration. PBS+/+ was used as untreated control. Next, 50 μL bacteria solutions were added to each well to a final bacteria concentration of 5×10^5 CFU/mL. Plates were incubated at 37° C. in Cytation 1 Cell Imaging Multimode Reader. Growth curves were obtained by measuring optical densities at 600 nm every 10 minutes for 18 hours using Cytation 1 Cell Imaging Multimode Reader. In addition, visual inspection of the plates was carried out after 18 hours and photographs were taken. MICs were defined as the lowest drug concentration in the microwell at which bacterial growth was not visible at the end of the incubation period. Besides MIC determination, specificity of TOUCAN 7mGe was also shown with subcultures on chromogenic media. For this purpose, 5 μL of different concentrations of each strain were inoculated onto CHROM agar Orientation Media (Becton Dickinson) and the bacterial growth of each bacteria strain tested was observed by naked eye after incubation at 37° C. for 24 hours. Finally, photographs of the chromogenic media were taken.

[1] = tested on: S. aureus ATCC 29213 (MSSA); assay: Broth microdilution MIC and growth inhibition; format: cell-based, Staphylococcus aureus; settings: for MIC: Staphylococcus aureus; for % Growth inhibition: mean ± SD, n = 3
Description: (§2) Bacteria strains. S. aureus NCTC 12493 (MRSA), S. aureus ATCC 29213 (MSSA), S. aureus ATCC 43300 (MRSA), S. aureus ATCC 1707 (MRSA), S. aureus ATCC 1717 (MRSA), S. aureus ATCC 1747 (MRSA), S. aureus ATCC 1761 (MRSA), S. aureus ATCC 1766 (MRSA), S. aureus ATCC 1768 (MRSA), S. epidermidis ATCC 35984, E. coli ATCC 25922, K. pneumoniae ATCC 13883, P. mirabilis ATCC 25933, S. enterica ATCC 14028 and P. aeruginosa ATCC 10145 strains were used in this study. Bacteria were initially inoculated onto tryptone soy agar with 5% defibrinated sheep blood (Thermo Fisher Scientific, Inc., Waltham, MA, USA) and incubated at 37° C. for 24 hours. Then, single colonies of each strain were transferred to tryptone soy broth (Thermo Fisher Scientific) for the nuclease activity assay or antimicrobial susceptibility testing, respectively.
as §1

[2] = tested on: S. aureus NCTC 12493 (MRSA); assay: Broth microdilution MIC and growth inhibition; format: cell-based, Staphylococcus aureus; settings: for MIC: Staphylococcus aureus; for % Growth inhibition: mean ± SD, n = 3
Description: as §2, §1

S. aureus (MN+) = assay: Nuclease activity assay with culture supernatants; format: biochemical, Staphylococcus aureus
Protocol: (§3) Nuclease activity assay. Nuclease activity of different S. aureus strains was evaluated using the TTprobe and TTprobe 2, along with the S. epidermidis as negative control and Micrococcal Nuclease (MN) as positive control. Single colonies of each bacteria strain isolated on tryptone soy agar were transferred to 50 mL tryptone soy broth and incubated at 37° C. for 24 hours with 200 rpm shaking. After the incubation period, 100 μL volumes of liquid cultures were transferred to a fresh 50 mL tryptone soy broth (1/500 dilution) and incubated under the same conditions for 12 hours. Next, cultures were centrifuged at 4500 g for 30 minutes and the supernatants were used for the nuclease activity assay. Briefly, 8 μL of supernatants were mixed with 1 μL PBS+/+ and 1 μL TT probe. The reactions were incubated at 37° C. for 1 hour. Then, 290 μL of 10 mM EDTA in PBS−/− solution were added to stop the reaction and the final solution was divided into triplicate wells (95 μL each), in a black flat-bottom polystyrene plates (Thermo Scientific F96). Fluorescence intensity was acquired at 485/20 excitation and 528/20 emission filter pair using Cytation 1 Cell Imaging Multimode Reader (Biotek Instruments Inc., USA).

[3] = tested on: Staphylococcus epidermidis (MN-); assay: Nuclease activity assay with culture supernatants (negative control); format: biochemical; settings: S. epidermidis cultures; FIG. 3
Protocol: as §3

[4] = tested on: S. aureus ATCC 1707 (MRSA); assay: Broth microdilution MIC and growth inhibition; format: cell-based, Staphylococcus aureus; settings: Staphylococcus aureus, 18 h, TOUCAN as NA equivalent, read-out: MIC
Description: as §2, §1

[5] = tested on: S. aureus ATCC 1717 (MRSA); assay: Broth microdilution MIC and growth inhibition; format: cell-based, Staphylococcus aureus; settings: Staphylococcus aureus, 18 h, TOUCAN as NA equivalent, read-out: MIC
Description: as §2, §1

[6] = tested on: S. aureus ATCC 1747 (MRSA); assay: Broth microdilution MIC and growth inhibition; format: cell-based, Staphylococcus aureus; settings: Staphylococcus aureus, 18 h, TOUCAN as NA equivalent, read-out: MIC
Description: as §2, §1

[7] = tested on: S. aureus ATCC 1761 (MRSA); assay: Broth microdilution MIC and growth inhibition; format: cell-based, Staphylococcus aureus; settings: Staphylococcus aureus, 18 h, TOUCAN as NA equivalent, read-out: MIC
Description: as §2, §1

[8] = tested on: S. aureus ATCC 1766 (MRSA); assay: Broth microdilution MIC and growth inhibition; format: cell-based, Staphylococcus aureus; settings: Staphylococcus aureus; S. aureus ATCC 1766 (MRSA); 18 h; TOUCAN as NA equivalent; read-out: MIC
Description: as §2, §1

[9] = tested on: S. aureus ATCC 1768 (MRSA); assay: Broth microdilution MIC and growth inhibition; format: cell-based, Staphylococcus aureus; settings: Staphylococcus aureus, 18 h, TOUCAN as NA equivalent, read-out: MIC
Description: as §2, §1

[10] = tested on: S. aureus ATCC 43300 (MRSA); assay: Broth microdilution MIC and growth inhibition; format: cell-based, Staphylococcus aureus; settings: Staphylococcus aureus, 18 h, TOUCAN as NA equivalent, read-out: MIC
Description: as §2, §1

[11] = tested on: S. epidermidis ATCC 35984; assay: Broth microdilution MIC and growth inhibition (control bacteria); format: cell-based, Staphylococcus epidermidis; settings: Staphylococcus epidermidis, ATCC35984; S. epidermidis ATCC 35984; 18 h; TOUCAN as NA equivalent; read-out: MIC
Description: as §2, §1

E. coli ATCC 25922 = assay: as above; format: cell-based, Escherichia coli; settings: Escherichia coli, ATCC25922, 18 h, TOUCAN as NA equivalent, read-out: MIC
Description: as §2, §1

K. pneumoniae ATCC 13883 = assay: as above; format: cell-based; settings: Klebsiella pneumoniae, ATCC13883, 18 h, TOUCAN as NA equivalent, read-out: MIC
Description: as §2, §1

P. aeruginosa ATCC 10145 = assay: as above; format: cell-based; settings: Pseudomonas aeruginosa, ATCC10145, 18 h, TOUCAN as NA equivalent, read-out: MIC
Description: as §2, §1

S. enterica ATCC 14028 = assay: as above; format: cell-based; settings: Salmonella enterica, ATCC14028, 18 h, TOUCAN as NA equivalent, read-out: MIC
Description: as §2, §1

P. mirabilis ATCC 25933 = assay: as above; format: cell-based, Proteus mirabilis; settings: Proteus mirabilis, ATCC25933, 18 h, TOUCAN as NA equivalent, read-out: MIC
Description: as §2, §1

[12] = tested on: Pancreatic cancer cells (ASPC-1); assay: Anti-cancer drug susceptibility testing, pancreatic cancer cells, 72 h; format: cell-based; settings: 72 h cultures; Gemcitabine alone, TOUCAN 7mGe spiked with MN; FIG. 13
Protocol: (§4) Anti-cancer drug susceptibility testing for TOUCAN 7mGe. Gemcitabine and equivalent 7mGe solutions were prepared as explained before. Then, 7mGe was pre-exposed to 10 μl of 10 U MN for 1 hour at 37° C. (7mGe+MN). 100 μl of both drugs (Gemcitabine and 7mGe+MN) were added to the related wells and serially diluted using PBS+/+making the final concentrations between 100-2 μg/μl. Breast cancer cells (MDAMB231) and Pancreatic cancer cells (ASPC-1) were prepared as 10.000 cells/ml and 100 μl cell suspensions were added to each well. The plate was incubated at 37° C. for 72 hours. At 48th hour of incubation, 100 μl CyQUANT® Direct Cell Proliferation Assay kit was added to each well. Cell counts and images were taken at the end of 72 hours incubation period using Cytation 1 Cell Imaging Multi-Mode Reader.

[13] = tested on: Breast cancer cells (MDAMB231); assay: Anti-cancer drug susceptibility testing, breast cancer cells, 72 h; format: cell-based; settings: 72 h of treatment; Gemcitabine alone, TOUCAN 7mGe spiked with MN; FIG. 14
Protocol: as §4

[14] = Table 1, S. aureus ATCC 29213, read-out: MIC
[15] = Table 1, S. aureus NCTC 12493, read-out: MIC

## mU-mU-mU-mU-Ge-mU-mU-mU-mU [Ge-Control]
S. aureus; S. aureus cultures, optical density (OD) over 18 h, FIG. 1b
  bacterial growth inhibition: low growth inhibition efficiency

## O=c1[nH]c(=O)n([C@H]2C[C@H](O)[C@@H](CO)O2)cc1I [Idoxuridine]
[1]; [14]
  MIC: > 40000 ng/mL
[1]; Table 1, S. aureus ATCC 29213
  % Growth inhibition: 13.4 ± 3.4%
[2]; [15]
  MIC: > 40000 ng/mL
[2]; Table 1, S. aureus NCTC 12493
  % Growth inhibition: 46.0 ± 0.6%

## FAM-mU-mU-mU-mU-T-T-mU-mU-mU-mU-TQ2 [TTprobe2]
S. aureus (MN+); S. aureus cultures, FIG. 3
  degradation by nucleases: efficient degradation
S. aureus (MN+); all S. aureus strains used in the study, FIG. 4
  degradation by nucleases: efficiently
[3]
  stability in presence of control bacteria: rendered stable

## Nc1ccn([C@@H]2O[C@H](CO)[C@@H](O)C2(F)F)c(=O)n1 [Gemcitabine, reference compound]
[4]
  MIC: 8 ng/mL
[5]
  MIC: 8 ng/mL
[6]
  MIC: 8 ng/mL
[7]
  MIC: 16 ng/mL
[8]
  MIC: 8 ng/mL
[9]
  MIC: 8 ng/mL
[1]; S. aureus ATCC 29213 (MSSA), 18 h, TOUCAN as NA equivalent, read-out: MIC
  MIC: 4 ng/mL
[1]; [14]
  MIC: 4 ng/mL (≈ 0.0152 µM)
[1]; Table 1, S. aureus ATCC 29213
  % Growth inhibition: 94.2 ± 0.04%
[10]
  MIC: 4 ng/mL
[2]; S. aureus NCTC 12493 (MRSA), 18 h, TOUCAN as NA equivalent, read-out: MIC
  MIC: 4 ng/mL
[2]; [15]
  MIC: 4 ng/mL (≈ 0.0152 µM)
[2]; Table 1, S. aureus NCTC 12493
  % Growth inhibition: 93.7 ± 0.2%
[11]
  MIC: 2 ng/mL
E. coli ATCC 25922
  MIC: > 40000 ng/mL
K. pneumoniae ATCC 13883
  MIC: > 40000 ng/mL
P. aeruginosa ATCC 10145
  MIC: > 40000 ng/mL
S. enterica ATCC 14028
  MIC: > 40000 ng/mL
P. mirabilis ATCC 25933
  MIC: > 40000 ng/mL
S. aureus; read-out: MIC values over all S. aureus strains tested
  MIC: 4 to 16 ng/mL (≈ 0.0152 to 0.0608 µM)
S. aureus; S. aureus, strain not given, read-out: MIC
  MIC: 4 ng/mL (≈ 0.0152 µM)
[12]
  killing of pancreatic cancer cells (viability): efficient in killing
[13]
  therapeutic effect in breast cancer cells (viability): clear therapeutic effect

## O=c1[nH]c(=O)n([C@H]2C[C@H](O)[C@@H](CO)O2)cc1C(F)(F)F [Trifluridine]
[1]
  MIC: 10000 ng/mL (≈ 33.8 µM)
[1]; Table 1, S. aureus ATCC 29213
  % Growth inhibition: 89.0 ± 5.1%
[2]
  MIC: 10000 ng/mL (≈ 33.8 µM)
[2]; Table 1, S. aureus NCTC 12493
  % Growth inhibition: 88.5 ± 1.1%

## Nc1ccn([C@@H]2O[C@H](CO)[C@@H](O)[C@@H]2O)c(=O)n1 [Cytarabine]
[1]; [14]
  MIC: > 40000 ng/mL
[1]; Table 1, S. aureus ATCC 29213
  % Growth inhibition: 16.3 ± 6.9%
[2]; [15]
  MIC: > 40000 ng/mL
[2]; Table 1, S. aureus NCTC 12493
  % Growth inhibition: 39.4 ± 2.5%

From US20250269039A1, “THERAPEUTIC-OLIGONUCLEOTIDES ACTIVATED BY NUCLEASES” (priority 2020, published 2025)
